Experimental data as given in ChEMBL document CHEMBL1201862, “PubChem BioAssay data set” (2004).
Active and inactive are the calls of the source.

Tests used:
[1] = molecular target: T1, Intestinal-type alkaline phosphatase (Homo sapiens, UniProt P09923); experiment: human intestinal alkaline phosphatase activators, dose response, biochemical, luminescence, uHTS hits (AID 463120); assay type: functional
[2] = molecular target: T1, Intestinal-type alkaline phosphatase; experiment: activation of human intestinal alkaline phosphatase – biochemical, luminescent, uHTS hits, set 2, dose response (AID 488817); assay type: functional;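 also: potency of activators that raise enzyme activity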
[3] = molecular target: T2, Alkaline phosphatase, tissue-nonspecific isozyme (Homo sapiens, UniProt P05186); experiment: activation of tissue-nonspecific alkaline phosphatase – biochemical, TNAP isozyme, human IAP uHTS hits, selectivity assay for human IAP activator project, dose response (AID 488886); assay type: functional;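 also: potency of compounds raising TNAP activity as a selectivity check on IAP activators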
T2 sequence (P05186 whole entry): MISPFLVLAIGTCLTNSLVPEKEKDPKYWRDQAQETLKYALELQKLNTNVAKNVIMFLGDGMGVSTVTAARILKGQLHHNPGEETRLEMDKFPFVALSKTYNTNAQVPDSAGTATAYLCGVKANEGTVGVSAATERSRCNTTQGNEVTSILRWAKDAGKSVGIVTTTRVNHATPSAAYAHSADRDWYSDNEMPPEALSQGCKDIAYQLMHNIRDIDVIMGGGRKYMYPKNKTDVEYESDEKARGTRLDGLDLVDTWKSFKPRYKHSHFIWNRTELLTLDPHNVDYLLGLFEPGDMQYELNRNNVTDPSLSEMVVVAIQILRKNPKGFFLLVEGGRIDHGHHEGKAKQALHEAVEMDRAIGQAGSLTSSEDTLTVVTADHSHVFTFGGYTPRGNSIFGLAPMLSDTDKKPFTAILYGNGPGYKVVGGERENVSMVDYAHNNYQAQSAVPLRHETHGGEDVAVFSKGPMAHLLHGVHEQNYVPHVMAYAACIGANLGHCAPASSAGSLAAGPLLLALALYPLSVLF

[4] = molecular target: Intestinal-type alkaline phosphatase (Mus musculus, UniProt P24822); experiment: PubChem AID 488874; assay type: functional
[5] = molecular target: T3, Hexokinase HKDC1 (Homo sapiens, UniProt Q2TB90); experiment: activation of HKDC1 glucose phosphorylation – biochemical, W721R variant, dose response (AID 504730); assay type: functional
T3 sequence (Q2TB90 whole entry): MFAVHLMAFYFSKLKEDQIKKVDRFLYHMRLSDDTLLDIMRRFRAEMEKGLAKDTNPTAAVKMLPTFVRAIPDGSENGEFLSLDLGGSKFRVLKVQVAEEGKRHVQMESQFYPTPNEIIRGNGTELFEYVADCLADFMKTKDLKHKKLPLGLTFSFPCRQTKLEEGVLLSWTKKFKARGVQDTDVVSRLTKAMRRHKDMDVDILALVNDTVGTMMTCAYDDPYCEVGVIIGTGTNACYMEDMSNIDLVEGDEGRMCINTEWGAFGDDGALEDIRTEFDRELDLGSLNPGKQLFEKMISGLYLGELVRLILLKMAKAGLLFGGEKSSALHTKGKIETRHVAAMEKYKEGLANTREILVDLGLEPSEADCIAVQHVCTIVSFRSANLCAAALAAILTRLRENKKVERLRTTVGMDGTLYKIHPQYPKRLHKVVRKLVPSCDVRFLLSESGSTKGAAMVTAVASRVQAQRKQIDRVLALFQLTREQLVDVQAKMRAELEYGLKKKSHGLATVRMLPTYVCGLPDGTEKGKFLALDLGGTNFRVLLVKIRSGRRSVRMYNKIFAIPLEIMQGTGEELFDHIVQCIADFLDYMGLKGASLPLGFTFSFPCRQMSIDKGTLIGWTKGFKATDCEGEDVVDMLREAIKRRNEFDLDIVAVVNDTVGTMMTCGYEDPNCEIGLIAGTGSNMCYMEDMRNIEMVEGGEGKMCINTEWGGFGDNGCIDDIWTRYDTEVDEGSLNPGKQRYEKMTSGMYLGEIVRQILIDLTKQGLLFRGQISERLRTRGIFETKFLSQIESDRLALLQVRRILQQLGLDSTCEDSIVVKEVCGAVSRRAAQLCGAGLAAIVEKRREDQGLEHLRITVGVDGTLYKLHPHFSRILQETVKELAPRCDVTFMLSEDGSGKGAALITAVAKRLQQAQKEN

[6] = molecular target: T4, Hexokinase-1 (Homo sapiens, UniProt P19367); experiment: HK1 enzyme activation by HKDC1 hits – biochemical, selectivity assay for HKDC1 activator project, dose response (AID 504762); assay type: functional
T4 sequence (P19367 whole entry): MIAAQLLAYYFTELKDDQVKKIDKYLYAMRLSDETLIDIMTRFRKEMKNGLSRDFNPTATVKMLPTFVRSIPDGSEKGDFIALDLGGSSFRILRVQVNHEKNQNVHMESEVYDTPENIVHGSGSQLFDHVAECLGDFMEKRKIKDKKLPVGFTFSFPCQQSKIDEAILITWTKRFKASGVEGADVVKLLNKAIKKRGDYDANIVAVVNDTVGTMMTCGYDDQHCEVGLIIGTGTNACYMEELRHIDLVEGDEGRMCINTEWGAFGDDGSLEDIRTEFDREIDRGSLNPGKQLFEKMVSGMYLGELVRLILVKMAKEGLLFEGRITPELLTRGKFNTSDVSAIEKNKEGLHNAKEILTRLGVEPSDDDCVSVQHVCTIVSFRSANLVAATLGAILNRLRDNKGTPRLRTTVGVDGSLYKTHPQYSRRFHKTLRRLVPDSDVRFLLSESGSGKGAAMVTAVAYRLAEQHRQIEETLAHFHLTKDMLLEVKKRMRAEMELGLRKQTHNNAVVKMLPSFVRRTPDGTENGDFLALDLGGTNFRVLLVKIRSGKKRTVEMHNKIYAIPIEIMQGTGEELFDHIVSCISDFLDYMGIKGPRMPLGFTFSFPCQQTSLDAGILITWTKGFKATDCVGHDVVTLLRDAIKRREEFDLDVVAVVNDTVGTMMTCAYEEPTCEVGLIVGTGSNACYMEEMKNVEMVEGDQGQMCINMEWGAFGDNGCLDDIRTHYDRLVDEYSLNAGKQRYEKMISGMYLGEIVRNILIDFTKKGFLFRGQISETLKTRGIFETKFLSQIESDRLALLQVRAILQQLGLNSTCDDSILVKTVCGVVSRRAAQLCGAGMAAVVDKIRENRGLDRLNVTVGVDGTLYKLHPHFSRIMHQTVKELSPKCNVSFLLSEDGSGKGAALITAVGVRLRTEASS

[7] = molecular target: Lysine-specific demethylase 4C (Homo sapiens, UniProt Q9H3R0); experiment: inhibition of JMJD2C H3K9me3 demethylation – biochemical, DELFIA europium, cherry-picked samples, dose response (AID 488835); assay type: functional
[8] = molecular target: T5, Type-1 angiotensin II receptor (Homo sapiens, UniProt P30556); experiment: antagonism of angiotensin II type 1 receptor – cell-based, uHTS hits, selectivity assay for APJ receptor antagonist project, dose response (AID 463214); assay type: functional;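 also: antagonist potency against angiotensin II stimulated AT1 response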
T5 sequence (P30556 whole entry): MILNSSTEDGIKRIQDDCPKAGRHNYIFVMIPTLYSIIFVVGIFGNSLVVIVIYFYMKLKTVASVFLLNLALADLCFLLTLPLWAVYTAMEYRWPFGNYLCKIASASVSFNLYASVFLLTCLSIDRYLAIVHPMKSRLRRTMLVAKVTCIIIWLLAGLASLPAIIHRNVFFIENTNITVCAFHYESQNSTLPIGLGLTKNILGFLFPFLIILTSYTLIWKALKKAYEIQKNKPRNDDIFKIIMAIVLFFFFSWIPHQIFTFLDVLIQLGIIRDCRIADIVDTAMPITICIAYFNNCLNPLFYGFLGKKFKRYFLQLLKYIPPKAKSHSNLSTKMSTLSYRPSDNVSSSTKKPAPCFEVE

[9] = molecular target: Beta-galactosidase (Escherichia coli, UniProt Q8VNN2); experiment: PubChem AID 485352; assay type: functional
[10] = molecular target: T6, RNA-binding protein pos-1 (Caenorhabditis elegans, UniProt G5EF15); experiment: disruptors of C. elegans POS-1 RNA interaction – biochemical, fluorescence polarization, dose response (AID 1964);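 also: purified POS-1 fused to maltose binding protein made in E. coli; potency of compounds blocking POS-1 binding to fluorescent RNA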
T6 sequence (G5EF15 whole entry): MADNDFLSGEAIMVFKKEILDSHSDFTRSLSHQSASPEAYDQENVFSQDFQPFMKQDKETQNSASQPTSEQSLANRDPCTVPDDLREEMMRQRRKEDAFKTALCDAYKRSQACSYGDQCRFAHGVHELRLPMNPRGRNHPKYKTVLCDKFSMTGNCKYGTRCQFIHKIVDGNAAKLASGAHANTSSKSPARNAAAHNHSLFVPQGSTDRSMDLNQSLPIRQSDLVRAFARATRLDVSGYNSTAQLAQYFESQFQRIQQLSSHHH

[11] = molecular target: Lysine-specific demethylase 4A (Homo sapiens, UniProt O75164); experiment: inhibition of JMJD2A H3K9me3 demethylation – biochemical, DELFIA europium, cherry-picked samples, selectivity assay for GASC-1 inhibitor project, dose response (AID 488840)
[12] = molecular target: T7, Zinc finger protein mex-5 (Caenorhabditis elegans, UniProt Q9XUB2); experiment: potency of MEX-5 RNA-binding blockers – biochemical, C. elegans, fluorescence polarization, dose response (AID 1960)
T7 sequence (Q9XUB2 whole entry): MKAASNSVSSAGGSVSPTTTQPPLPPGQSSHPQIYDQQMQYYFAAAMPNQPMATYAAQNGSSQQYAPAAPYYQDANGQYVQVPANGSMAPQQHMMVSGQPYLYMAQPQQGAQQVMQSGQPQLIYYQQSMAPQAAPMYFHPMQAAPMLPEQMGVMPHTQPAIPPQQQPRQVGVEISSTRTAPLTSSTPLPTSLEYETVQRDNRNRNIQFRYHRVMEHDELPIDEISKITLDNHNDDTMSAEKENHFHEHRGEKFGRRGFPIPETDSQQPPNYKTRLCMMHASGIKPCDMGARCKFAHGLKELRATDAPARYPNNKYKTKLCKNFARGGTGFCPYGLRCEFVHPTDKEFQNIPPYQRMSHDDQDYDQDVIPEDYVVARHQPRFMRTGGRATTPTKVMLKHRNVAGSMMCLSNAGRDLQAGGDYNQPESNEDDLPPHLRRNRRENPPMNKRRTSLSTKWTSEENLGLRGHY

[13] = system: Candida albicans; experiment: C. albicans growth inhibition with fluconazole – CaCi-2 strain, Alamar Blue, dry powder, set 4, dose response (AID 488943); assay type: functional, organism-based
[14] = M. tuberculosis growth inhibition, HTS (AID 449762); assay type: functional
[15] = microbe, parasite or virus in culture; assay type: functional; conditions: Mycobacterium tuberculosis
[16] = molecular target: Cytochrome P450 3A4 (Homo sapiens, UniProt P08684);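 also: CYP3A4 tested as one member of a cytochrome P450 panel screen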
[17] = molecular target: SUMO E1/E2 (Homo sapiens, UniProt P63279+Q9UBE0+Q9UBT2); experiment: SAR analysis of SUMOylation using HTRF in an in-Vitro dose response assay. [Related pubchem assays (depositor defined):AID2006, AID2011, AID2018, AID2069, AID2658]; assay type: functional
Sequence of SUMO E1/E2 (Q9UBE0 whole entry): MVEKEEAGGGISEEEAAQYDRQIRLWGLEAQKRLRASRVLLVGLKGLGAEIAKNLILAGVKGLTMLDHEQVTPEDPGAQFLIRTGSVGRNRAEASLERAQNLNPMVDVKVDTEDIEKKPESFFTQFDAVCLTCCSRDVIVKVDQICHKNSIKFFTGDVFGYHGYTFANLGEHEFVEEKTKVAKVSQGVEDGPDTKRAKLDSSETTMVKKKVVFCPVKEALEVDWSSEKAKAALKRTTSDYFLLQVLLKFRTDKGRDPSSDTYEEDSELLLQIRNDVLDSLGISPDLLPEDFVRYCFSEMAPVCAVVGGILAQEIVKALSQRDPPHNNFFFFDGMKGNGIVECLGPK
Sequence of SUMO E1/E2 (Q9UBT2 whole entry): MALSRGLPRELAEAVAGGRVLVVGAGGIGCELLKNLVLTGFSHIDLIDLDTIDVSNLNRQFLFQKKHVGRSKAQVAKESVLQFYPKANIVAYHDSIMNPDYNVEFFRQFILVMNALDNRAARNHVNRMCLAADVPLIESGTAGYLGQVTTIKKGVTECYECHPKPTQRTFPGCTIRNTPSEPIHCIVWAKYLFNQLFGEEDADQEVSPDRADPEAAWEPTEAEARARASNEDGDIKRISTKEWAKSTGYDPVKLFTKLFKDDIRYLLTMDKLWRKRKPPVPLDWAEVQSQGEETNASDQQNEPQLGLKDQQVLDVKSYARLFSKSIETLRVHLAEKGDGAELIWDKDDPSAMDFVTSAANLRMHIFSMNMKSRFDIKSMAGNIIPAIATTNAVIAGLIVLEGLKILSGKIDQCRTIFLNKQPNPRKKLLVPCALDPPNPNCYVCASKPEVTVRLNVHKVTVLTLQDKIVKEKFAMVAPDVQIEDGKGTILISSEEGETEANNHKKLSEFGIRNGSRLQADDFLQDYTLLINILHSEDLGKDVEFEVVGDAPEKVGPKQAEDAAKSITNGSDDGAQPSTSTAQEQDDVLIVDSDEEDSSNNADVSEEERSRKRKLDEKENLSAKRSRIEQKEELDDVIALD
Sequence of SUMO E1/E2 (P63279 whole entry): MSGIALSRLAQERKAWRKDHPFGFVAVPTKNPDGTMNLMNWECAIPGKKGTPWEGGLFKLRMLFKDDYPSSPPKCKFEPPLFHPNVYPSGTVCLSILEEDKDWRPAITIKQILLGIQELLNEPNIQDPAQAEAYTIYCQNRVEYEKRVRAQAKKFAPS

T1 sequence (P09923 whole entry): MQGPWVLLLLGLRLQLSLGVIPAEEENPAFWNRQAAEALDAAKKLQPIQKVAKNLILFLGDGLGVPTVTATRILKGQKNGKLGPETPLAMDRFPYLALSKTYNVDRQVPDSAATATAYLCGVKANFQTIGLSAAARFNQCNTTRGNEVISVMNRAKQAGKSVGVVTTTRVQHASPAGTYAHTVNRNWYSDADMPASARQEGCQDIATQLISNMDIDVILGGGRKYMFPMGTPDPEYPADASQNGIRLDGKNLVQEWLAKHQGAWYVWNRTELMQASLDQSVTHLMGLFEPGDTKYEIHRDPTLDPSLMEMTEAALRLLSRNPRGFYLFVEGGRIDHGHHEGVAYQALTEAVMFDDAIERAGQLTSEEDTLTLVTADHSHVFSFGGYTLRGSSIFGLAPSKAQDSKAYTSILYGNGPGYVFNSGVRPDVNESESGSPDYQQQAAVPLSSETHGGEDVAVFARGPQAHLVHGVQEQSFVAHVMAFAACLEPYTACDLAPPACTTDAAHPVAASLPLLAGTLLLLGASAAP
Sequence of Intestinal-type alkaline phosphatase (Mus musculus, UniProt P24822) (P24822 whole entry): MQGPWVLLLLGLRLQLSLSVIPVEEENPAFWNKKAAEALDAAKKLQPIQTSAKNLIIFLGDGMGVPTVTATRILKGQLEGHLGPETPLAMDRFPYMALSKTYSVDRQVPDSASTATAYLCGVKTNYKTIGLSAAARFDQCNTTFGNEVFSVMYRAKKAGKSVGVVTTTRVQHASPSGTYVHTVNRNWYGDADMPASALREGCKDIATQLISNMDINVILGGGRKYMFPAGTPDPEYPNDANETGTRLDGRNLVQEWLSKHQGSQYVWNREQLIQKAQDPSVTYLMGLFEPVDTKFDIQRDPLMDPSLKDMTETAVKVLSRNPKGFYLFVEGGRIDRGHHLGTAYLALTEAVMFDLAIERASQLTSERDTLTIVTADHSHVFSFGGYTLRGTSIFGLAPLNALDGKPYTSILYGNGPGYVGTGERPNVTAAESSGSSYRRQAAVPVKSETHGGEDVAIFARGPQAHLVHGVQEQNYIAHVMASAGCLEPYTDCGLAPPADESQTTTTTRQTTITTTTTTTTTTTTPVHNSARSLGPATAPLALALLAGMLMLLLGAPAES
Sequence of Lysine-specific demethylase 4C (Q9H3R0 whole entry): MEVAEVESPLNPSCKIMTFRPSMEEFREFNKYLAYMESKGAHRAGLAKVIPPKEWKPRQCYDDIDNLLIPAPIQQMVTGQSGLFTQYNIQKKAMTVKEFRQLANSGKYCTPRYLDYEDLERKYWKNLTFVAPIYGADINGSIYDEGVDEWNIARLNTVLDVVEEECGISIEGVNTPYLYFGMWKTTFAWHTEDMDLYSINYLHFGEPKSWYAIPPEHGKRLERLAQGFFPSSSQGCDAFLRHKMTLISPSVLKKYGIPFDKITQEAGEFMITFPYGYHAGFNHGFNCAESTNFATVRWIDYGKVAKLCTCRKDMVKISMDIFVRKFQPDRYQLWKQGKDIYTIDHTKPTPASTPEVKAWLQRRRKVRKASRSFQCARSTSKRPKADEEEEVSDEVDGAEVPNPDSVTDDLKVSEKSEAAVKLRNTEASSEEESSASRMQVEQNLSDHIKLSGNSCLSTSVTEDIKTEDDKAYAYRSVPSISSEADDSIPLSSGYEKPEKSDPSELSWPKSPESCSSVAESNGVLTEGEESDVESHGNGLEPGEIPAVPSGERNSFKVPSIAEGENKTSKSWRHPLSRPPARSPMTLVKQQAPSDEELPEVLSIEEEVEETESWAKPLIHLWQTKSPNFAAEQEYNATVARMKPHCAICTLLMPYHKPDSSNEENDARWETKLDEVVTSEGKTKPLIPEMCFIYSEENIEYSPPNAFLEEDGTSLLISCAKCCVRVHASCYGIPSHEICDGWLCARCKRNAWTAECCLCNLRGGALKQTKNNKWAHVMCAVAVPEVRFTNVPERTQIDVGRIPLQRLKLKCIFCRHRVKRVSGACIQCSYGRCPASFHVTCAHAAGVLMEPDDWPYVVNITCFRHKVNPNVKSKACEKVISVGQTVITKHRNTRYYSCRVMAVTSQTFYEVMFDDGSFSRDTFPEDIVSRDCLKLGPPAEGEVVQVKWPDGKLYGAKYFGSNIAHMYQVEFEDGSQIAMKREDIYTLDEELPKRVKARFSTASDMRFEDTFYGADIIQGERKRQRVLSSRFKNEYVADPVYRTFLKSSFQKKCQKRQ
Sequence of Lysine-specific demethylase 4A (O75164 whole entry): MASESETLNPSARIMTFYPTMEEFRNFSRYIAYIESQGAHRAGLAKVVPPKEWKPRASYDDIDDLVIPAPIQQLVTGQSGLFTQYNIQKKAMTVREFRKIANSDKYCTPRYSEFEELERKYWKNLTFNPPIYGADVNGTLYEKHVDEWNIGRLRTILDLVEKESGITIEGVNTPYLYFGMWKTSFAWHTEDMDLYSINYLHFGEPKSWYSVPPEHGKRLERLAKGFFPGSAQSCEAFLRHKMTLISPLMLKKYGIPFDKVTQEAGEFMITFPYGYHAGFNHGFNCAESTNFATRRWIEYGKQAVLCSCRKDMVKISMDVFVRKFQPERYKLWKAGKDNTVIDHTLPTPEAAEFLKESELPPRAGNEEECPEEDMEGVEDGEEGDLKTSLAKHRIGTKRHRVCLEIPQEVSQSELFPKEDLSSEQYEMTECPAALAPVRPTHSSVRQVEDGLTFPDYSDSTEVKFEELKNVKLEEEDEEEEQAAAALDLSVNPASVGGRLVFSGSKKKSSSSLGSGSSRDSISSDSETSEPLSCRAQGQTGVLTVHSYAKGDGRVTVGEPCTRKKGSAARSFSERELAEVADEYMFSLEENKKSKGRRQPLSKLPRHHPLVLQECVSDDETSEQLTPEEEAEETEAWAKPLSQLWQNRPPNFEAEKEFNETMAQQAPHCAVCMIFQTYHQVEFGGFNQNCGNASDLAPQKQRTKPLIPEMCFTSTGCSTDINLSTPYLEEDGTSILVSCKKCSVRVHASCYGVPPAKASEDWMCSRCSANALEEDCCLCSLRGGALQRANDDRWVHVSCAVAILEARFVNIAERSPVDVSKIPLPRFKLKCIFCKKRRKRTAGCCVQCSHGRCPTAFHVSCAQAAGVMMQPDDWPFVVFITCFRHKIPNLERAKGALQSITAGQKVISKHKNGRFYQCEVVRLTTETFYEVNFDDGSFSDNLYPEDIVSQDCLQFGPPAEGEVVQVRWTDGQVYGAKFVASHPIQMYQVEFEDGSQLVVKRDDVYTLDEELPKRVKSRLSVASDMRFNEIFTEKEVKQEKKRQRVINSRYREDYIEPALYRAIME
Sequence of Cytochrome P450 3A4 (P08684 whole entry): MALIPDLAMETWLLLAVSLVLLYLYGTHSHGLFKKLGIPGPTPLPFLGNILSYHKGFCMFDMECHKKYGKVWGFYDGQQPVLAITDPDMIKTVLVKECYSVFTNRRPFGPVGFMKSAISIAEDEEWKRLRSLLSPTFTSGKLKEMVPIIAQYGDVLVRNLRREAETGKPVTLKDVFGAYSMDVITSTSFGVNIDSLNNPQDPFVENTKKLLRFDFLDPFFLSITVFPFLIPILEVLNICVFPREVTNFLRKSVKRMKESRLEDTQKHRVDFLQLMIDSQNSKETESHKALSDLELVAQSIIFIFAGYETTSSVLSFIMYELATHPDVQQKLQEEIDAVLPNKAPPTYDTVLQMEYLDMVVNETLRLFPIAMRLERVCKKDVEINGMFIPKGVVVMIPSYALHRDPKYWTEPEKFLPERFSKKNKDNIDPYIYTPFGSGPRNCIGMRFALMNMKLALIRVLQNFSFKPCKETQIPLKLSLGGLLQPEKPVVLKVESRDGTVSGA

O=C(Cc1ccc(Cl)c(Cl)c1)NNC(=S)NCC1CCCO1 (configuration not stated)
EC50 [1]: 14.3 µM (active)
EC50 [2]: 17.5 µM (active)
EC50 [3]: 20.2 µM (active)
IC50 [4]: 49.6 µM (active)

CC(=O)C1=C(c2ccccc2)N(C(C)=O)n2c(C)nnc2S1
EC50 [5]: 26 µM (inactive)
EC50 [6]: 20.8 µM (inactive)
AC50 [7]: 0.8 µM (active)
IC50 [8]: 11.3 µM (active)
EC50 [9]: 16.8 µM (active)
EC50 [10]: 191 µM (active)
AC50 [11]: 56.3 µM (active)
EC50 [12]: 10.7 µM (active)

Clc1ccc2c(N3CCNCC3)ccnc2c1
AC50 [13]: 21.7 µM (active)

COC(=O)C(Cc1ccc(OC(=O)c2ccc(C(F)(F)F)cc2)cc1)N1Cc2ccccc2C1=O (configuration not stated)
IC50 [14]: > 100 µM (active)
CC50 [15]: 37.4 µM (active)
AC50 [16]: inconclusive

S=c1[nH]nc(-c2cc(-c3ccccc3)[nH]n2)n1N=Cc1ccc(Br)s1
IC50 [17]: 11.3 µM (active)
